Data taken from patent publication US7375083B2, “Pharmaceutical compositions for prevention of overdose or abuse” (Shire LLC, priority 2003, dated 2008).

Tests used:
[1] = Intranasal bioavailability in rats, plasma d-amphetamine by ELISA; conditions: rat, 3 mg/kg
[2] = Serum and brain tissue levels after oral administration, LC/MS/MS; conditions: rat, 5 mg/kg d-amphetamine base

CC(Cc1ccccc1)NC(=O)C(N)CCCCN [L-lysine-d-amphetamine, 2,6-diaminohexanoic acid-(1-methyl-2-phenylethyl)-amide]
Release of d-amphetamine into circulation [1]: did not release any significant amount of d-amphetamine | Intact conjugate in serum [2]: present in appreciable amounts in serum
